The supplement of paper PMC10307832

Tests used:
Assay in all cases: relative viability (nuclei count vs DMSO), 5 days (fraction); higher = more cells survive
Sulindac + Phenformin = compound: CC1=C(CC(=O)O)c2cc(F)ccc2/C1=C\c1ccc([S+](C)[O-])cc1 [Sulindac] + N=C(N)NC(=N)NCCc1ccccc1 [Phenformin] (partner 250 µM)
In short: (§1)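 Relative viability equals treated-well nuclei counts divided by vehicle-well nuclei counts. Counts came from 4× images of lung cancer cell lines grown in 1536-well plates for 5 days after pin-tool dosing on the day after seeding. Dosing used one drug alone or a fixed anchor-drug dose plus five library-drug doses (not always all listed) in √10 steps, and values are medians of duplicate plates.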

Sulindac + Vorinostat = compound: CC1=C(CC(=O)O)c2cc(F)ccc2/C1=C\c1ccc([S+](C)[O-])cc1 [Sulindac] + O=C(CCCCCCC(=O)Nc1ccccc1)NO [Vorinostat] (partner 1 µM)
In short: as §1

[1] = compound: CN[C@@H]1C[C@H]2O[C@@](C)([C@@H]1OC)n1c3ccccc3c3c4c(c5c6ccccc6n2c5c31)C(=O)NC4 [Staurosporine] + N=C(N)NC(=N)NCCc1ccccc1 [Phenformin] (partner 250 µM)
In short: as §1

[2] = compound: O=c1[nH]cc(F)c(=O)[nH]1 [5-Fluorouracil] + C[C@]1(O)C[C@@H](c2nc(-c3ccc4ccc(-c5ccccc5)nc4c3)c3c(N)nccn32)C1 [Linsitinib] (partner 1 µM)
In short: as §1

UMC-11
relative viability (Sulindac + Phenformin; first compound 0.08 µM): 0.359
relative viability (Sulindac + Phenformin; first compound 0.253 µM): 0.352
relative viability (Sulindac + Phenformin; first compound 0.8 µM): 0.284
relative viability (Sulindac + Phenformin; first compound 2.53 µM): 0.323
relative viability (Sulindac + Phenformin; first compound 8 µM): 0.396
relative viability (Sulindac + Vorinostat; first compound 0.08 µM): 0.342
relative viability (Sulindac + Vorinostat; first compound 0.253 µM): 0.411
relative viability (Sulindac + Vorinostat; first compound 0.8 µM): 0.374
relative viability (Sulindac + Vorinostat; first compound 2.53 µM): 0.338
relative viability (Sulindac + Vorinostat; first compound 8 µM): 0.386
relative viability ([1]; first compound 0.005 µM): 0.305
relative viability ([1]; first compound 0.01581 µM): 0.168
relative viability ([1]; first compound 0.05 µM): 0.135
relative viability ([1]; first compound 0.1581 µM): 0.0915
relative viability ([1]; first compound 0.5 µM): 0.13
relative viability ([2]; first compound 0.02 µM): 0.969
relative viability ([2]; first compound 0.2 µM): 0.674
relative viability ([2]; first compound 0.6325 µM): 0.512
relative viability ([2]; first compound 2 µM): 0.363
